Test systems include ACHN; CCRF-CEM; HCT-15; HL-60; HOP-62; HT-29; MDA-MB-231; Malme-3M; NCI-H522; OVCAR-3; PC-3; RPMI-8226; RXF 393; SK-MEL-2; SK-MEL-5; SN12C; SNB-19; TK-10; OVCAR-4; SR.
Common to all, as to assay: NCI tumour cell line growth inhibition, 48 h

Each structure is given as a SMILES string. Where “and” joins values, the source holds several entries; their conditions need not be identical. Equal entries are not always repeated.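 These data come from cells grown in 96-well plates and exposed to compound for 48 hours at five concentrations. GI50 = concentration required for 50% inhibition of growth.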 Calls of active or inactive are those of the source. Rule as the data show it: active = GI50 up to about 1.1 µM and inactive = higher.

We go through eleven compounds from ChEMBL document CHEMBL1201862, “PubChem BioAssay data set” (2004).

Turning to `N#C[C@H](C(=O)c1ccccc1F)c1nc2ccccc2s1`, the GI50 with ACHN was 49.1 µM (inactive); in the assay with CCRF-CEM, 23.4 µM (inactive); in the assay with HCT-15, 54.5 µM; with HL-60 it was 31.3 µM (inactive); with HOP-62 it was 20.5 µM (inactive); with HT-29 it was 28.1 µM (inactive). Further, the GI50 in the assay with MDA-MB-231 was 35.8 µM (inactive); with Malme-3M, 10.4 µM (inactive); with NCI-H522, 15.5 µM (inactive); in the assay with OVCAR-3, 18.5 µM (inactive); in the assay with PC-3, 24.2 µM (inactive); in the assay with RPMI-8226, 22.5 µM (inactive). Besides, the GI50 in the assay on RXF 393 is 27.7 µM (inactive); in the assay with SK-MEL-2, 16.6 µM (inactive); with SK-MEL-5, 26.9 µM (inactive); in the assay on SN12C, 31.6 µM (inactive); in the assay with SNB-19, 27.5 µM (inactive); in the assay on TK-10, > 100 µM (inactive).
Turning to `O=C1/C(=C/c2ccc(O)c(CN3CCCCC3)c2)CCC/C1=C\c1ccc(O)c(CN2CCCCC2)c1`, the GI50 was 6.31 µM (inactive) with ACHN; 3.32 µM (inactive) in the assay with CCRF-CEM; 5.37 µM in the assay with HCT-15; 3.48 µM (inactive) with HL-60; 5.04 µM (inactive) in the assay with HOP-62; 1.51 µM (inactive) with HT-29. Moreover, the GI50 was 5.69 µM (inactive) in the assay with MDA-MB-231; 13.6 µM (inactive) in the assay on Malme-3M; 5.12 µM (inactive) with OVCAR-3; 6.81 µM (inactive) in the assay with OVCAR-4; 7.05 µM (inactive) with PC-3; 6.85 µM (inactive) with RPMI-8226. Besides, the GI50 with RXF 393 was 3.24 µM (inactive); in the assay on SK-MEL-2 it was 22.1 µM (inactive); in the assay with SK-MEL-5, 14 µM (inactive); with SN12C it was 8.79 µM (inactive); in the assay with SNB-19, 5.04 µM (inactive); with TK-10, 6.17 µM (inactive).
In the case of `Cc1ccc(O)c(-c2cscn2)c1`, the GI50 is 32 µM (inactive) in the assay on ACHN; 0.37 µM (active) in the assay on CCRF-CEM; 31.6 µM in the assay with HCT-15; 1.81 µM (inactive) in the assay on HL-60; 33.3 µM (inactive) in the assay on HOP-62; 62.5 µM (inactive) in the assay with HT-29. The GI50 is > 100 µM (inactive) in the assay on Malme-3M; 35.2 µM (inactive) in the assay on OVCAR-3; 54 µM (inactive) in the assay on OVCAR-4; 39.8 µM (inactive) in the assay with PC-3; 36 µM (inactive) with RPMI-8226; 64 µM (inactive) in the assay on SK-MEL-2. Moreover, the GI50 in the assay with SK-MEL-5 was 23.7 µM (inactive); in the assay on SN12C, 35.2 µM (inactive); in the assay on SNB-19, 25.1 µM (inactive); in the assay with SR, 40.4 µM (inactive); in the assay on TK-10 it was 44.8 µM (inactive).
For `CC12CC3OC(=O)C1COC14OC5(C2C1=O)C(O)(CCC1C4CC(O)C2(O)CC=CC(=O)C12C)C(=O)OC35C` (stereo unspecified), the GI50 was > 100 µM (inactive) with ACHN; > 100 µM (inactive) in the assay on CCRF-CEM; more than 100 µM in the assay with HCT-15; > 100 µM (inactive) in the assay with HL-60; > 100 µM (inactive) in the assay on HT-29; > 100 µM (inactive) with MDA-MB-231. Moreover, the GI50 in the assay on Malme-3M, with NCI-H522, in the assay on OVCAR-3, in the assay with OVCAR-4, in the assay on PC-3 and in the assay with RPMI-8226 was > 100 µM (inactive) each time. Also, the GI50 in the assay with SK-MEL-2, in the assay with SK-MEL-5, in the assay on SN12C, with SNB-19 and in the assay with TK-10 was > 100 µM (inactive) each time.
In the case of `COc1nc2sc3c(c2c(=O)n1CCCSSCCCn1c(OC)nc2sc4c(c2c1=O)CCCC4)CCCC3`, the GI50 was > 100 µM (inactive) with ACHN; > 100 µM (inactive) in the assay on CCRF-CEM; more than 100 µM with HCT-15; > 100 µM (inactive) in the assay with HOP-62; > 100 µM (inactive) in the assay with HT-29; > 100 µM (inactive) with MDA-MB-231. The GI50 in the assay on Malme-3M was > 100 µM (inactive); with NCI-H522, > 100 µM (inactive); in the assay on OVCAR-4, > 100 µM (inactive); in the assay with PC-3, > 100 µM (inactive); in the assay on RPMI-8226, 6.92 µM (inactive); with RXF 393, > 100 µM (inactive). The GI50 in the assay with SK-MEL-2, with SK-MEL-5, in the assay with SN12C, in the assay on SNB-19 and in the assay on TK-10 was > 100 µM (inactive) each time.
On to `O=P1(O)c2ccccc2CCc2ccccc21`, for which the GI50 with CCRF-CEM was > 100 µM (inactive); with HCT-15, more than 100 µM; in the assay with HOP-62, > 100 µM (inactive); with MDA-MB-231 it was > 100 µM (inactive); in the assay with NCI-H522, > 100 µM (inactive); in the assay on OVCAR-3 it was > 100 µM (inactive). Moreover, the GI50 in the assay with PC-3, in the assay on RPMI-8226, in the assay on RXF 393, with SK-MEL-2, with SK-MEL-5 and in the assay with SN12C was > 100 µM (inactive) in each case. The GI50 in the assay on SNB-19 and with TK-10 was > 100 µM (inactive) each time.
Regarding `COc1ccc(/N=C2\C(=N/c3ccc(OC)cc3)N(c3ccc(N(C)C)cc3)C(=S)N2c2ccc(OC)cc2)cc1`, the GI50 with ACHN was > 100 µM (inactive); in the assay on CCRF-CEM, > 100 µM (inactive); with HCT-15, more than 100 µM; with HL-60 it was > 100 µM (inactive); in the assay with HOP-62, > 64.6 µM (inactive); in the assay with HT-29, > 100 µM (inactive). The GI50 with MDA-MB-231, in the assay with Malme-3M, in the assay on NCI-H522, in the assay on OVCAR-3, with OVCAR-4 and in the assay with PC-3 was > 100 µM (inactive) throughout. In addition, the GI50 in the assay with RPMI-8226 is 0.0532 µM (active); in the assay on RXF 393 it was 0.0378 µM (active); in the assay on SK-MEL-2, > 100 µM (inactive); with SK-MEL-5, > 100 µM (inactive); in the assay on SN12C it was > 100 µM (inactive); in the assay on SNB-19, > 100 µM (inactive). Further, in the assay with TK-10, the GI50 is > 100 µM (inactive).
Take `CCOC(=O)CCn1ncc(Cl)c(Cl)c1=O`: the GI50 with ACHN is 17 µM (inactive); with CCRF-CEM it was 2.9 µM (inactive); in the assay on HCT-15 it was 2.15 µM; in the assay with HL-60, 2.67 µM (inactive); in the assay with HOP-62 it was 21.4 µM (inactive); in the assay on HT-29 it was 4.24 µM (inactive). Also, the GI50 is 14.2 µM (inactive) in the assay with Malme-3M; 0.291 µM (active) in the assay on NCI-H522; 3.57 µM (inactive) with OVCAR-3; 1.54 µM (inactive) in the assay on OVCAR-4; 2.38 µM (inactive) in the assay on RPMI-8226; 11.4 µM (inactive) in the assay on RXF 393. The GI50 in the assay with SK-MEL-2 was 8.53 µM (inactive); in the assay with SK-MEL-5, 11.8 µM (inactive); with SN12C, 13.7 µM (inactive); in the assay on SNB-19, 13.5 µM (inactive); in the assay on SR it was 2.89 µM (inactive); in the assay on TK-10, 17.9 µM (inactive).
`COc1ccc(OC)c(/C=C/[N+](=O)[O-])c1`: the GI50 with ACHN was 1.82 µM (inactive) and 2.21 µM (inactive); in the assay on CCRF-CEM, 1.01 µM (active) and 1.58 µM (inactive); with HCT-15, 3.37 µM and 2.75 µM; with HOP-62, 4.93 µM (inactive) and 2.78 µM (inactive); in the assay on HT-29, 3.47 µM (inactive) and 2.49 µM (inactive); in the assay on MDA-MB-231, 1.87 µM (inactive). Further, the GI50 is 1.63 µM (inactive) and 1.16 µM (inactive) with NCI-H522; 2.14 µM (inactive) and 1.75 µM (inactive) in the assay on OVCAR-3; 4.31 µM (inactive) and 2.8 µM (inactive) in the assay on OVCAR-4; 1.39 µM (inactive) and 845 nM (active) with RPMI-8226; 1.12 µM (inactive) and 2.05 µM (inactive) in the assay with RXF 393; 2.41 µM (inactive) and 4.62 µM (inactive) in the assay with SK-MEL-2. Moreover, the GI50 is 3.29 µM (inactive) and 2.33 µM (inactive) in the assay on SK-MEL-5; 2.44 µM (inactive) and 3.77 µM (inactive) in the assay on SN12C; 3.44 µM (inactive) and 4.23 µM (inactive) in the assay with SNB-19.
`Brc1cccc(Nc2ncnc3sc4c(c23)CCC2(C4)OCCO2)c1`: the GI50 in the assay with ACHN was 4.68 µM (inactive); in the assay with HCT-15, 25.4 µM; in the assay with HOP-62, 52.4 µM (inactive); with HT-29, 45.4 µM (inactive); with MDA-MB-231 it was 87.1 µM (inactive); in the assay on Malme-3M, 39.2 µM (inactive). Besides, the GI50 with NCI-H522 is 12.3 µM (inactive); in the assay on OVCAR-3, 28.4 µM (inactive); with OVCAR-4 it was 20.1 µM (inactive); in the assay with PC-3, 33.7 µM (inactive); in the assay on SK-MEL-2, 33 µM (inactive); in the assay with SK-MEL-5, 15.8 µM (inactive). Also, the GI50 is 27.4 µM (inactive) in the assay on SN12C, 34.3 µM (inactive) in the assay on SNB-19 and 7.73 µM (inactive) in the assay with TK-10.
In the case of `CC[C@]12C=CCN3CC[C@@]4(c5cc(Br)c(OC)cc5N(C)[C@H]4[C@@](O)(C(=O)NN)[C@@H]1O)[C@@H]32`, the GI50 with ACHN is 79.3 µM (inactive); in the assay on CCRF-CEM, 38 µM (inactive); with HCT-15, more than 100 µM; in the assay on HL-60 it was 37.9 µM (inactive); in the assay with HOP-62, > 100 µM (inactive); in the assay on HT-29, > 100 µM (inactive). Besides, the GI50 is 70.3 µM (inactive) in the assay with MDA-MB-231; 69.8 µM (inactive) in the assay with Malme-3M; 52.2 µM (inactive) with NCI-H522; 58.9 µM (inactive) with OVCAR-3; 96.6 µM (inactive) in the assay with OVCAR-4; 28.1 µM (inactive) in the assay with PC-3. The GI50 is 22.5 µM (inactive) in the assay with RXF 393; 29.8 µM (inactive) in the assay on SK-MEL-2; 49.5 µM (inactive) in the assay with SK-MEL-5; 76.9 µM (inactive) with SN12C; 91.6 µM (inactive) in the assay on SNB-19; 59.4 µM (inactive) in the assay on TK-10.
